Measurements as given in patent publication EP2495244A1, “Piperidinyl benzoimidazole derivatives as mPGEs-1 inhibitors” (NovaSaid AB, priority 2011, dated 2012).

What was measured:
human mPGEs-1 = biological target: T1, human mPGEs-1 (Homo sapiens, UniProt O14684); experiment: Thiobarbituric acid assay (TBA-MDA assay, malondialdehyde assay) for inhibition of mPGEs-1
T1 sequence (O14684 1-152): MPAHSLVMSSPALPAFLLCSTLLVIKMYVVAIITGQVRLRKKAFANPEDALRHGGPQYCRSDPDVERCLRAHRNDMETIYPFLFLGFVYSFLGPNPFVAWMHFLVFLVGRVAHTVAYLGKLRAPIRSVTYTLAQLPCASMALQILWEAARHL

cellular PGE2 synthesis = experiment: A549 cell-assay (PGE2 content of supernatant by EIA); type: cell-based; settings: Homo sapiens, A549 lung carcinoma cells, TNFalfa (5 ng/mL) and IL-1beta (5 ng/mL) 16 hours, 30 minutes with test compound, 10 µM arachidonic acid 30 minutes, arithmetic mean values
Procedure: Prostaglandin detection kits were purchased from Cayman Chemicals and used according to the instruction of the manufacturer.
A549 lung carcinoma cells, seeded at a density of 10, 000 cells/well, were grown in 96 well tissue culture plates. TNFalfa (5 ng/mL) and IL-1beta (5 ng/mL) were added and the cells were incubated for 16 hours. Cells were washed in PBS and test compounds at the appropriate concentration in HBSS/0.1% BSA were added. After 30 minutes of incubation with test compounds, 10 µM arachidonic acid was added and cells were further incubated for 30 minutes. Supernatant was collected and analyzed for PGE2 content by EIA according to manufacturer's instructions. Table 1. Inhibition of human mPGEs-1 and cellular PGE2 synthesis.

Row | SMILES | IC50 (human mPGEs-1) | IC50 (cellular PGE2 synthesis)
1 | Cc1cc2nc(N3CCC(C(=O)N[C@@H]4CCOC4)CC3)n(-c3ccc4ncccc4c3)c2cc1C [Example 15, (R)-1-(5,6-dimethyl-1-(quinolin-6-yl)-1H-benzo[d]imidazol-2-yl)-N-(tetrahydrofuran-3-yl)piperidine-4-carboxamide] | 65 nM | 66 nM
2 | Cc1cc2c(cc1Cl)nc(N1CCC(C(=O)N[C@@H]3CCOC3)CC1)n2-c1ccc2cc(F)ccc2n1 [Example 11, (R)-1-(5-Chloro-1-(6-fluoroquinolin-2-yl)-6-methyl-1H-benzo[d]imidazol-2-yl)-N-(tetrahydrofuran-3-yl)piperidine-4-carboxamide] | 47 nM | 16 nM
3 | Cc1cc2nc(N3CCC(C(=O)N[C@@H]4CCOC4)CC3)n(-c3ccc4ccccc4n3)c2cc1Cl [Example 3, (R)-1-(6-Chloro-5-methyl-1-(quinolin-2-yl)-1H-benzo[d]imidazol-2-yl)-N (tetrahydrofuran-3-yl)piperidine-4-carboxamide] | 37 nM | 58 nM
4 | O=C(N[C@@H]1CCOC1)C1CCN(c2nc3cc(Cl)c(Cl)cc3n2-c2ccc3cc(Cl)ccc3n2)CC1 [Example 4, (R)-1-(5,6-Dichloro-1-(6-chloroquinolin-2-yl)-1H-benzo[d]imidazol-2-yl)-N-(tetrahydrofuran-3-yl)piperidine-4-carboxamide] | 35 nM | 44 nM
5 | O=C(N[C@@H]1CCOC1)C1CCN(c2nc3cc(Cl)c(Cl)cc3n2-c2cc3ccccc3cn2)CC1 [Example 14, (R)-1-(5,6-Dichloro-1-(isoquinolin-3-yl)-1H-benzo[d]imidazol-2-yl)-N-(tetrahydrofuran-3-yl)piperidine-4-carboxamide] | 21 nM | 
6 | Cc1cc(-n2c(N3CCC(C(=O)N[C@@H]4CCOC4)CC3)nc3cc(Cl)c(Cl)cc32)nc2ccccc12 [Example 7, (R)-1-(5,6-Dichloro-1-(4-methylquinolin-2-yl)-1H-benzo[d]imidazol-2-yl)-N-(tetrahydrofuran-3-yl)piperidine-4-carboxamide] | 32 nM | 30 nM
7 | Cc1cc2c(cc1Cl)nc(N1CCC(C(=O)N[C@@H]3CCOC3)CC1)n2-c1ccc2ccccc2n1 [Example 2, (R)-1-(5-Chloro-6-methyl-1-(quinolin-2-yl)-1H-benzo[d]imidazol-2-yl)-N-(tetrahydrofuran-3-yl)piperidine-4-carboxamide] | 25 nM | 58 nM
8 | Cc1cc2nc(N3CCC(C(=O)N[C@@H]4CCOC4)CC3)n(-c3ccc4cc(Cl)ccc4n3)c2cc1Cl [Example 9, (R)-1-(6-Chloro-1-(6-chloroquinolin-2-yl)-5-methyl-1H-benzo[d]imidazol-2-yl)-N-(tetrahydrofuran-3-yl)piperidine-4-carboxamide] | 51 nM | 67 nM
9 | Cc1cc2nc(N3CCC(C(=O)N[C@@H]4CCOC4)CC3)n(-c3ccc4cc(Cl)ccc4n3)c2cc1C [Example 6, (R)-1-(1-(6-Chloroquinolin-2-yl)-5,6-dimethyl-1H-benzo[d]imidazol-2-yl)-N-(tetrahydrofuran-3-yl)piperidine-4-carboxamide] | 58 nM | 50 nM
10 | O=C(N[C@@H]1CCOC1)C1CCN(c2nc3cc(Cl)c(Cl)cc3n2-c2ccc3ccccc3n2)CC1 [Example 1, (R)-1-(5,6-Dichloro-1-(quinolin-2-yl)-1H-benzo[d]imidazol-2-yl)-N-(tetrahydrofuran-3-yl)piperidine-4-carboxamide] |  | 43 nM
11 | O=C(N[C@@H]1CCOC1)C1CCN(c2nc3cc(Cl)c(Cl)cc3n2-c2ccc3cccc(F)c3n2)CC1 [Example 13, (R)-1-(5,6-Dichloro-1-(8-fluoroquinolin-2-yl)-1H-benzo[d]imidazol-2-yl)-N-(tetrahydrofuran-3-yl)piperidine-4-carboxamide] | 30 nM | 
12 | O=C(N[C@@H]1CCOC1)C1CCN(c2nc3cc(Cl)c(Cl)cc3n2-c2ccccn2)CC1 [Example 16, (R)-1-(5,6-dichloro-1-(pyridin-2-yl)-1H-benzo[d]imidazol-2-yl)-N-(tetrahydrofuran-3-yl)piperidine-4-carboxamide] | 150 nM | 
13 | O=C(N[C@@H]1CCOC1)C1CCN(c2nc3cc(Cl)c(Cl)cc3n2-c2ccc3cc(F)ccc3n2)CC1 [Example 10, (R)-1-(5,6-Dichloro-1-(6-fluoroquinolin-2-yl)-1H-benzo[d]imidazol-2-yl)-N-(tetrahydrofuran-3-yl)piperidine-4-carboxamide] | 42 nM | 61 nM
14 | Cc1cc2c(cc1Cl)nc(N1CCC(C(=O)N[C@@H]3CCOC3)CC1)n2-c1ccc2cc(Cl)ccc2n1 [Example 8, (R)-1-(5-Chloro-1-(6-chloroquinolin-2-yl)-6-methyl-1H-benzo[d]imidazol-2-yl)-N-(tetrahydrofuran-3-yl)piperidine-4-carboxamide] | 31 nM | 40 nM
15 | O=C(N[C@@H]1CCOC1)C1CCN(c2nc3cc(Cl)c(Cl)cc3n2-c2ccc3cccc(Cl)c3n2)CC1 [Example 5, (R)-1-(5,6-Dichloro-1-(8-chloroquinolin-2-yl)-1H-benzo[d]imidazol-2-yl)-N-(tetrahydrofuran-3-yl)piperidine-4-carboxamide] | 34 nM | 4 nM
16 | Cc1cc2nc(N3CCC(C(=O)N[C@@H]4CCOC4)CC3)n(-c3ccc4cc(F)ccc4n3)c2cc1Cl [Example 12, (R)-1-(6-Chloro-1-(6-fluoroquinolin-2-yl)-5-methyl-1H-benzo[d]imidazol-2-yl)-N-(tetrahydrofuran-3-yl)piperidine-4-carboxamide] | 26 nM | 24 nM
